Measured values from US10294202B2, “Pyrrolidinones as herbicides” (FMC Corporation, priority 2013, dated 2019).

What was measured:
[1] = test system: pigweed; assay: Test C pre-/postemergence herbicide test; format: in vivo, Amaranthus retroflexus
Outline: (§1)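 Pre-emergence: seeds sown in loam/sand blend and treated with compound in surfactant-containing solvent. Post-emergence: plants at 2–18 cm (1- to 4-leaf stage) in peat-based medium sprayed with the same formulation. Visual rating versus controls after 13–15 days in greenhouse, scale 0 (no effect) to 100 (complete control).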

[2] = test system: crabgrass, large; assay: Test C pre-/postemergence herbicide test; format: in vivo, Digitaria sanguinalis
Outline: as §1

[3] = test system: lambsquarters; assay: Test C pre-/postemergence herbicide test; format: in vivo, Chenopodium album
Outline: as §1

[4] = test system: barnyardgrass; assay: Test B flooded paddy test; format: in vivo, Echinochloa crus-galli; conditions: 500 g ai/ha, Flood; scale of 0 to 100 where 0 is no effect and 100 is complete control
Outline: (§2)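 In-water application to pots flooded 3 cm deep, plants at 2-leaf stage. Held in greenhouse 13–15 days at constant flood depth. Scored 0–100 by eye against controls.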

[5] = test system: barnyardgrass; assay: Test A pre-/postemergence herbicide test; format: in vivo, Echinochloa crus-galli
Outline: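 Seeds in loam–sand blend received preemergence directed soil spray; separately, plants 2–10 cm at one- to two-leaf stage received postemergence spray, both with test chemicals in non-phytotoxic solvent with surfactant. After ~10 days in greenhouse, injury rated visually against untreated controls, 0 (no effect) to 100 (complete control).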

[6] = test system: blackgrass; assay: Test C pre-/postemergence herbicide test; format: in vivo, Alopecurus myosuroides
Outline: as §1

[7] = test system: foxtail, giant; assay: Test C pre-/postemergence herbicide test; format: in vivo, Setaria faberii
Outline: as §1

[8] = test system: galium; assay: Test C pre-/postemergence herbicide test; format: in vivo, Galium aparine; conditions: Preemergence; for Plant response rating (scale of 0 to 100), Galium: 250 g ai/ha
Outline: as §1

[9] = test system: corn; assay: Test C pre-/postemergence herbicide test; format: in vivo, Zea mays
Outline: as §1

[10] = test system: rice; assay: Test B flooded paddy test; format: in vivo, Oryza sativa; conditions: 500 g ai/ha, Flood; scale of 0 to 100 where 0 is no effect and 100 is complete control
Outline: as §2

[11] = test system: velvetleaf; assay: Test C pre-/postemergence herbicide test; format: in vivo, Abutilon theophrasti
Outline: as §1

[12] = Preemergence, 62 g ai/ha, scale 0 to 100 (0 no effect, 100 complete control)
[13] = Preemergence, 125 g ai/ha, scale 0 to 100
[14] = Preemergence, 31 g ai/ha, scale 0 to 100
[15] = Postemergence, 500 g ai/ha, 0 to 100 scale (0 no effect, 100 complete control)
[16] = Postemergence, 31 g ai/ha, scale 0 to 100 (0 no effect, 100 complete control)
[17] = Postemergence, 62 g ai/ha, scale 0 (no effect) to 100 (complete control)
[18] = Postemergence, 125 g ai/ha, scale 0 to 100 (0 no effect, 100 complete control)
[19] = Postemergence, 250 g ai/ha, scale 0 to 100 (0 no effect, 100 complete control)
[20] = Preemergence, 31 g ai/ha, scale 0 to 100, 0 is no effect and 100 is complete control
[21] = Preemergence, 62 g ai/ha, scale 0 to 100
[22] = Preemergence, 125 g ai/ha, scale 0 to 100 (0 no effect, 100 complete control)

O=C1NCC(c2ccc(OC(F)F)cc2)C1C(=O)Nc1cccc(F)c1F (racemic) [Compound 350]
Pigweed plant response rating [1, 12]: 10 | Plant response rating, Pigweed [1, 13]: 80 | Plant response rating, Pigweed [1, 14]: 0 | Crabgrass, Large plant response rating [2, 12]: 90 | Plant response rating, Crabgrass, Large [2, 13]: 90 | Plant response rating (scale of 0 to 100), Crabgrass, Large ([2]; Preemergence, 250 g ai/ha): 90 | Plant response rating, Crabgrass, Large [2, 14]: 90 | Lambsquarters plant response rating [3, 12]: 90 | Plant response rating, Lambsquarters [3, 13]: 90 | Plant response rating (scale of 0 to 100), Lambsquarters ([3]; Preemergence, 250 g ai/ha): 90 | Plant response rating, Barnyardgrass [4]: 60 | Plant response rating, Barnyardgrass ([5]; Postemergence, 125 g ai/ha, visual rating on 0 to 100 scale (0 no effect, 100 complete control), approx. 10 days): 70 | Plant response rating, Barnyardgrass [5, 15]: 90 | Plant response rating, Barnyardgrass ([5]; Preemergence, 125 g ai/ha, 0 to 100 scale where 0 is no effect and 100 is complete control): 90 | Barnyardgrass plant response rating ([5]; Preemergence, 500 g ai/ha, visual rating on 0 to 100 scale (0 no effect, 100 complete control)): 90 | Blackgrass plant response rating [6, 12]: 0 | Plant response rating, Blackgrass [6, 13]: 50 | Plant response rating (scale of 0 to 100), Blackgrass ([6]; Preemergence, 250 g ai/ha): 55 | Plant response rating, Blackgrass [6, 14]: 0 | Foxtail, Giant plant response rating [7, 12]: 90 | Plant response rating, Foxtail, Giant [7, 13]: 90 | Plant response rating (scale of 0 to 100), Foxtail, Giant ([7]; Preemergence, 250 g ai/ha): 90 | Plant response rating, Foxtail, Giant [7, 14]: 85 | Galium plant response rating ([8]; 62 g ai/ha, scale 0 to 100 (0 no effect, 100 complete control)): 85 | Plant response rating, Galium ([8]; 125 g ai/ha, scale 0 to 100): 90 | Plant response rating (scale of 0 to 100), Galium [8]: 90 | Plant response rating, Galium ([8]; 31 g ai/ha, scale 0 to 100): 30 | Corn plant response rating [9, 12]: 0 | Plant response rating, Corn [9, 13]: 5 | Plant response rating (scale of 0 to 100), Corn ([9]; Preemergence, 250 g ai/ha): 40 | Plant response rating, Corn [9, 14]: 0 | Plant response rating, Rice [10]: 0 | Velvetleaf plant response rating [11, 12]: 0 | Plant response rating, Velvetleaf [11, 13]: 0 | Plant response rating, Velvetleaf [11, 14]: 0

O=C1NCC(c2ccc(F)cc2)C1C(=O)Nc1ccc(F)c(F)c1F (racemic) [Compound 120]
Plant response rating, Pigweed [1, 16]: 5 | Plant response rating, Pigweed [1, 17]: 20 | Plant response rating, Pigweed [1, 18]: 40 | Plant response rating, Pigweed [1, 19]: 60 | Pigweed plant response rating [1, 20]: 50 | Plant response rating, Pigweed [1, 21]: 45 | Plant response rating, Pigweed [1, 22]: 65 | Plant response rating (scale of 0 to 100), Pigweed ([1]; Preemergence, 250 g ai/ha): 80 | Plant response rating, Crabgrass, Large [2, 16]: 55 | Plant response rating, Crabgrass, Large [2, 17]: 70 | Plant response rating, Crabgrass, Large [2, 18]: 70 | Plant response rating, Crabgrass, Large [2, 19]: 75 | Crabgrass, Large plant response rating [2, 20]: 98 | Plant response rating, Crabgrass, Large [2, 21]: 100 | Plant response rating, Crabgrass, Large [2, 22]: 100 | Plant response rating (scale of 0 to 100), Crabgrass, Large ([2]; Preemergence, 250 g ai/ha): 100 | Plant response rating, Lambsquarters [3, 16]: 55 | Plant response rating, Lambsquarters [3, 17]: 55 | Plant response rating, Lambsquarters [3, 18]: 60 | Plant response rating, Lambsquarters [3, 19]: 70 | Lambsquarters plant response rating [3, 20]: 35 | Plant response rating, Lambsquarters [3, 21]: 70 | Plant response rating, Lambsquarters [3, 22]: 85 | Plant response rating (scale of 0 to 100), Lambsquarters ([3]; Preemergence, 250 g ai/ha): 90 | Plant response rating, Barnyardgrass [4]: 80 | Plant response rating, Barnyardgrass ([5]; 125 g ai/ha, visual rating, 0 to 100 scale, 0 no effect, 100 complete control, approximately 10 days, preemergence): 90 | Plant response rating, Barnyardgrass ([5]; Postemergence, 125 g ai/ha, 0 to 100 scale, 0 no effect, 100 complete control): 80 | Plant response rating, Barnyardgrass [5, 15]: 90 | Plant response rating, Barnyardgrass ([5]; preemergence, 500 g ai/ha, 0 to 100 scale (0 no effect, 100 complete control)): 90 | Plant response rating, Blackgrass [6, 16]: 0 | Plant response rating, Blackgrass [6, 17]: 0 | Plant response rating, Blackgrass [6, 18]: 0 | Plant response rating, Blackgrass [6, 19]: 0 | Blackgrass plant response rating [6, 20]: 35 | Plant response rating, Blackgrass [6, 21]: 50 | Plant response rating, Blackgrass [6, 22]: 50 | Plant response rating (scale of 0 to 100), Blackgrass ([6]; Preemergence, 250 g ai/ha): 70 | Plant response rating, Foxtail, Giant [7, 16]: 25 | Plant response rating, Foxtail, Giant [7, 17]: 65 | Plant response rating, Foxtail, Giant [7, 18]: 75 | Plant response rating, Foxtail, Giant [7, 19]: 85 | Foxtail, Giant plant response rating [7, 20]: 90 | Plant response rating, Foxtail, Giant [7, 21]: 95 | Plant response rating, Foxtail, Giant [7, 22]: 98 | Plant response rating (scale of 0 to 100), Foxtail, Giant ([7]; Preemergence, 250 g ai/ha): 98 | Galium plant response rating ([8]; 31 g ai/ha, scale 0 to 100, 0 is no effect and 100 is complete control): 5 | Plant response rating, Galium ([8]; 62 g ai/ha, scale 0 to 100): 95 | Plant response rating, Galium ([8]; 125 g ai/ha, scale 0 to 100 (0 no effect, 100 complete control)): 50 | Plant response rating (scale of 0 to 100), Galium [8]: 90 | Plant response rating, Corn [9, 16]: 0 | Plant response rating, Corn [9, 17]: 0 | Plant response rating, Corn [9, 18]: 0 | Plant response rating, Corn [9, 19]: 0 | Corn plant response rating [9, 20]: 0 | Plant response rating, Corn [9, 21]: 0 | Plant response rating, Corn [9, 22]: 20 | Plant response rating (scale of 0 to 100), Corn ([9]; Preemergence, 250 g ai/ha): 65 | Plant response rating, Rice [10]: 20 | Plant response rating, Velvetleaf [11, 16]: 25 | Plant response rating, Velvetleaf [11, 17]: 0 | Plant response rating, Velvetleaf [11, 18]: 5 | Plant response rating, Velvetleaf [11, 19]: 25 | Velvetleaf plant response rating [11, 20]: 0 | Plant response rating, Velvetleaf [11, 21]: 20 | Plant response rating, Velvetleaf [11, 22]: 35 | Plant response rating (scale of 0 to 100), Velvetleaf ([11]; Preemergence, 250 g ai/ha): 40
